These results are taken from patent publication US20070254843A1, “Methods for treating bone associated diseases by the use of methionine aminopeptidase-2 inhibitors” (Praecis Pharmaceuticals Incorporated, priority 2006, published 2007).

In assay [1] the test system is PG-PS-induced arthritis. Description: Microfocal computed tomography of hind joints in rat PG-PS arthritis model. It counts as in vivo. The settings on record: PG-PS arthritis, 1 mg/kg; threshold 255. How it is done:
Microfocal computed tomography. All specimens were scanned on a Scanco Medical AG μCT 40 system. Images were obtained with an isotropic voxel resolution of 20 microns. A matrix size of 1024×1024 with 1000 projections was utilized for all scans. A total of 1836 slices were scanned for each specimen (the number of slices scanned was determined by the length of the scan needed to cover the entire ankle including the distal tibia). The scan time per specimen was approximately 2.6 hours. The images were then volume rendered using a fixed threshold (at two different thresholds: 255 and 140). The total bone volume and BMD were calculated over the same regions of all the specimens. Micro-CT was performed at Scanco USA, Incorporated.
Finally, the activity of the MetAP-2 inhibitor on the structural preservation of hind joints in rats with established disease was investigated.
The ankles including the distal tibia were scanned using a Scanco Medical AG μCT 40 system (threshold: 255), and the total bone volume and BMD were calculated over the same regions of all specimens.

The target of assay [2] is T1, MetAP-2 (Rattus norvegicus, UniProt P38062).
T1 construct: wbc from animals of each study group were pooled and cell lysates were prepared as previously described; from tissue; host or cells: white blood cells (wbc) of female Lewis rats, pooled per study group and lysed
Description: MetAP-2 pharmacodynamic assay in wbc lysates. The assay is classed as in vivo. The settings on record: po, PG-PS arthritis rats, 1 mg/kg p.o. qod, read-out: MetAP-2 in wbc inhibited relative to vehicle-treated group. How it is done:
MetAP-2 pharmacodynamic assay. The MetAP-2 assay measures the amount of uninhibited MetAP-2 in cells or tissues which has not been derivitized by prior treatment with the MetAP-2 inhibitor (Bernier (2004) Proc. Natl. Acad. Sci. USA 101: 10768-10773 and Bernier (2005) J. Cell. Biochem. 95: 1191-1203). Briefly, wbc from animals of each study group were pooled and cell lysates were prepared as previously described (Bernier (2004) Proc. Natl. Acad. Sci. USA 101: 10768-10773 and Bernier (2005) J. Cell. Biochem. 95: 1191-1203). 10 μg to 20 μg of wbc protein was incubated with a biotinylated analog of the MetAP-2 inhibitor which covalently binds to the catalytic site of MetAP-2. The biotinylated MetAP-2-inhibitor complex was captured on a plate with immobilized streptavidin (Pierce), and detected with the MetAP-2 antibody CM33 (0.5 μg/ml), followed by horseradish peroxidase-conjugated goat anti-rabbit IgG secondary antibody. The amount of uninhibited MetAP-2 was determined by measuring the absorption at 450 nm using a Labsystems Multiskan plate spectrophotometer. Human recombinant MetAP-2 (Mediomics), pre-bound to the biotinylated MetAP-2 inhibitor, was used to generate the standard curve. The detection limit of this assay was 0.47 ng MetAP-2 protein/mg wbc protein.
Since the MetAP-2 inhibitor had the ability to inhibit multiple cell types critical for pathogenesis of the bone associated disease, RA, in vitro, it was hypothesized that the observations from the in vitro studies (Example 1) would translate into protection from disease in animals in the PG-PS model of arthritis. The progression of disease in this model follows a biphasic mode, with an early acute, predominantly neutrophil-driven phase which persists to days 6-7, followed by a chronic, T cell dependent phase (evident around day 12), which is characterized by chronic inflammation and erosive synovitis (Palombella (1998) Proc. Natl. Acad. Sci. USA 95:15671-15676). Therapeutic dosing of animals administered the MetAP-2 inhibitor orally (p.o.) at 1, 5 and 10 mg/kg, every other day (qod), or vehicle started at day 15 after the chronic destructive phase of the disease was established and terminated on day 31. […] The amount of uninhibited MetAP-2 in wbc of animals from all treatment groups was measured after conclusion of the study, using the MetAP-2 pharmacodynamic assay (Bernier (2004) Proc. Natl. Acad. Sci. USA 101: 10768-10773 and Bernier (2005) J. Cell. Biochem. 95: 1191-1203). […]

Assay [3] has as its system PG-PS-induced arthritis. Briefly: Clinical (histopathological) assessment of PG-PS arthritis, joint histology score. It counts as in vivo, rat. The conditions noted are these: PG-PS arthritis, 1 mg/kg. On the procedure:
Clinical assessment of PG-PS arthritis. The histopathological evaluation was performed on the left and right hind joints of randomly selected animals from each study group by an independent histopathologist without knowledge of specific interventions. After completion of the study, the left and right hind ankles were removed, fixed in 10% buffered formalin, decalcified in 5% formic acid, paraffin-embedded, sectioned, and H&E stained for histological evaluation. A joint histology scoring system which grades the severity of 4 histopathological processes (cell infiltration, pannus formation, cartilage erosion, bone resorption), was used to quantify hind joint involvement in the PG-PS arthritis model (36). Dependent on the assigned score for each parameter (0=normal, 1=minimal, 2=mild, 3=moderate, 4=marked), the maximum total score per ankle is 16, and 32 per animal.
It was investigated whether the protective activity of the MetAP-2 inhibitor in this animal model of arthritis, which is characterized by aggressive synovitis, extensive pannus formation, cartilage degradation and focal bone erosion, was mediated through regression in the severity of all clinical indices tested, or whether this activity was targeting specific pathogenic processes.
A joint histology scoring system which grades the severity of 4 histopathological processes (cell infiltration, pannus formation, cartilage erosion, bone resorption) was used (O'Byrne (1991) Agents and Actions 134:239-241).

T1 sequence (P38062 whole entry): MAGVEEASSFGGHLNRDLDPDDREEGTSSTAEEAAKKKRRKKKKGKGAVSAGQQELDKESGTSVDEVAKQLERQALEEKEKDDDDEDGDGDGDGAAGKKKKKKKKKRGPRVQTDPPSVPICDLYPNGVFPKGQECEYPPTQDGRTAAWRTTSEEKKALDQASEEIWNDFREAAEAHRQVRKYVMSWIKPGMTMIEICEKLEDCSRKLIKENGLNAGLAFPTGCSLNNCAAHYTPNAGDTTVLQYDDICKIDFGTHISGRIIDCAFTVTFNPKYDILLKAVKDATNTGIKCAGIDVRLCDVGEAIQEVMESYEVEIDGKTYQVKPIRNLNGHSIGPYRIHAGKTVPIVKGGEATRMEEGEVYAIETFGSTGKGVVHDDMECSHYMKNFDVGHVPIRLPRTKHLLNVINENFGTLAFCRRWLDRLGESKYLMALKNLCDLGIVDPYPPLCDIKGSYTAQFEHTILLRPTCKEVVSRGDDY

In the case of `C[C@@H]1C[C@H]2[C@@H]3CCC4=CC(=O)C=C[C@]4(C)[C@@]3(F)[C@@H](O)C[C@]2(C)[C@@]1(O)C(=O)CO` [dex, dexamethasone, reference compound], in assay [1], the BMD was 1125 ± 2.59 mg HA/ccm and the “Bone Volume (Vox-BV)” value turned out to be 240.7 ± 12.68. Moreover, the inhibition at 1 mg/kg in assay [2] was not below 90%. Further, the Total arthritis score in assay [3] is given as 2.35 ± 0.23^B. For the same compound, in assay [3] (score 0-4), the “Bone Resorption score” value is recorded as 0.95 ± 0.13^B, the Cartilage erosion score is 0.60 ± 0.14^B, the Cell infiltration score is 0.25 ± 0.08^A and the Pannus formation score is reported as 0.55 ± 0.08^A.
